According to article PMC4584933, “Establishing the pig as a large animal model for vaccine development against human cancer” (Frontiers in Genetics, 2015):

Assays:
PBMCs = assay: In vitro peptide stimulation of porcine PBMCs, IFN-γ release assay (ELISA); type: cell-based, pig; set-up: key to T cell response: “x” indicates that a response was found to this given peptide at least once; conditions: for T cell response: PBMCs of immunized pigs, 2 × 10^5/well, 5 μg/ml peptide, 67.5–70.0 h, IFN-γ ELISA, response = 2-fold increase vs day -2 and at least 25 pg/ml IFN-γ, found at least once, SLA restriction not included
SLA-2*04:01 = assay: Peptide-MHC class I complex stability, scintillation proximity assay (SPA); set-up: species or system pig; conditions: biotinylated recombinant SLA heavy chain, 125I-β2m, excess unlabeled β2m, read every 40 min, number only if t1/2 ≥ 0.5 h, '-' = not stably binding
Method: (§1) The stability of the selected 198 peptides in complex with relevant SLA class I molecules and β2m was determined using a scintillation proximity assay (SPA), as previously described (Harndahl et al., [2011]). Briefly, biotinylated recombinant MHC class I heavy chains were attached to a streptavidin-coated scintillation microplate together with iodinated (^125I) β2m and candidate peptide resulting in a scintillation signal, which was consecutively measured every 40 min by a scintillation plate counter. The duration of this signal is directly correlated to the stability of the peptide-MHC class I-β2m complex under dissociating conditions and in the presence of excess unlabeled β2m (Harndahl et al., [2011]). Peptides with a half-life ≥ 0.5 h were selected as stable binders.

SLA-3*04:01 = assay: as above; set-up: species or system pig; conditions: biotinylated recombinant SLA heavy chain, 125I-β2m, excess unlabeled β2m, read every 40 min, number only if t1/2 ≥ 0.5 h, '-' = not stably binding
Method: as §1

Substance	Binder (t1/2 ≥ 0.5 h): half-life of peptide-SLA-2*04:01 complex (SLA-2*04:01)	Binder (t1/2 ≥ 0.5 h): half-life of peptide-SLA-3*04:01 complex (SLA-3*04:01)	further results
AGFLQEMRTY [IDO1, porcine IDO-derived 9-11mer peptide]	0.6 h	–	T cell response (PBMCs): x
ANRISAFGYL [RhoC3, porcine RhoC-derived 9-11mer peptide]	–	- (t1/2 (hours) is listed for each of the stably binding peptides (t1/2 ≥ 0.5 h))	–
ANRISAFGYLE [RhoC4, porcine RhoC-derived 9-11mer peptide]	–	- (t1/2 (hours) is listed for each of the stably binding peptides (t1/2 ≥ 0.5 h))	–
ANWKKKDPS [IDO6, porcine IDO-derived 9-11mer peptide]	–	- (t1/2 (hours) is listed for each of the stably binding peptides (t1/2 ≥ 0.5 h))	–
DNSWKIFEEY [IDO11, porcine IDO-derived 9-11mer peptide]	- (t1/2 (hours) is listed for each of the stably binding peptides (t1/2 ≥ 0.5 h))	–	–
DSLENIPEKW [RhoC9, porcine RhoC-derived 9-11mer peptide]	- (t1/2 (hours) is listed for each of the stably binding peptides (t1/2 ≥ 0.5 h))	–	–
DWWSPMDNSW [IDO13, porcine IDO-derived 9-11mer peptide]	- (t1/2 (hours) is listed for each of the stably binding peptides (t1/2 ≥ 0.5 h))	–	–
EKLGLPPILVY [IDO17, porcine IDO-derived 9-11mer peptide]	- (t1/2 (hours) is listed for each of the stably binding peptides (t1/2 ≥ 0.5 h))	–	–
ENYIADIEVD [RhoC19, porcine RhoC-derived 9-11mer peptide]	- (t1/2 (hours) is listed for each of the stably binding peptides (t1/2 ≥ 0.5 h))	–	–
FALPNPLEEL [IDO22, porcine IDO-derived 9-11mer peptide]	0.5 h	–	T cell response (PBMCs): x
FNAIQCEDL [IDO26, porcine IDO-derived 9-11mer peptide]	0.6 h	–	T cell response (PBMCs): x
FNVLRIYLS [IDO27, porcine IDO-derived 9-11mer peptide]	–	- (t1/2 (hours) is listed for each of the stably binding peptides (t1/2 ≥ 0.5 h))	–
FNVLRIYLSG [IDO28, porcine IDO-derived 9-11mer peptide]	–	- (t1/2 (hours) is listed for each of the stably binding peptides (t1/2 ≥ 0.5 h))	–
FNVLRIYLSGW [IDO29, porcine IDO-derived 9-11mer peptide]	33.6 h	–	T cell response (PBMCs): x
FSKDQFPEVY [RhoC26, porcine RhoC-derived 9-11mer peptide]	- (t1/2 (hours) is listed for each of the stably binding peptides (t1/2 ≥ 0.5 h))	–	–
HKMQRLAHLVL [IDO37, porcine IDO-derived 9-11mer peptide]	–	- (t1/2 (hours) is listed for each of the stably binding peptides (t1/2 ≥ 0.5 h))	–
KALLDITSSL [IDO46, porcine IDO-derived 9-11mer peptide]	–	- (t1/2 (hours) is listed for each of the stably binding peptides (t1/2 ≥ 0.5 h))	–
KDPSGPMTY [IDO47, porcine IDO-derived 9-11mer peptide]	–	- (t1/2 (hours) is listed for each of the stably binding peptides (t1/2 ≥ 0.5 h))	–
KEGVREVFEM [RhoC27, porcine RhoC-derived 9-11mer peptide]	–	- (t1/2 (hours) is listed for each of the stably binding peptides (t1/2 ≥ 0.5 h))	–
KGFFLVSLLV [IDO50, porcine IDO-derived 9-11mer peptide]	–	- (t1/2 (hours) is listed for each of the stably binding peptides (t1/2 ≥ 0.5 h))	–
KHFCPNVPI [RhoC28, porcine RhoC-derived 9-11mer peptide]	–	- (t1/2 (hours) is listed for each of the stably binding peptides (t1/2 ≥ 0.5 h))	–
KHFCPNVPII [RhoC29, porcine RhoC-derived 9-11mer peptide]	–	- (t1/2 (hours) is listed for each of the stably binding peptides (t1/2 ≥ 0.5 h))	–
KHFCPNVPIIL [RhoC30, porcine RhoC-derived 9-11mer peptide]	–	- (t1/2 (hours) is listed for each of the stably binding peptides (t1/2 ≥ 0.5 h))	–

Substance	Binder (t1/2 ≥ 0.5 h): half-life of peptide-SLA-2*04:01 complex (SLA-2*04:01)	Binder (t1/2 ≥ 0.5 h): half-life of peptide-SLA-3*04:01 complex (SLA-3*04:01)	further results
KLFFNVLRI [IDO52, porcine IDO-derived 9-11mer peptide]	–	- (t1/2 (hours) is listed for each of the stably binding peptides (t1/2 ≥ 0.5 h))	–
KLFFNVLRIYL [IDO54, porcine IDO-derived 9-11mer peptide]	–	- (t1/2 (hours) is listed for each of the stably binding peptides (t1/2 ≥ 0.5 h))	–
KMQRLAHLVL [IDO57, porcine IDO-derived 9-11mer peptide]	–	- (t1/2 (hours) is listed for each of the stably binding peptides (t1/2 ≥ 0.5 h))	–
KNKRRRGCPIL [RhoC32, porcine RhoC-derived 9-11mer peptide]	–	- (t1/2 (hours) is listed for each of the stably binding peptides (t1/2 ≥ 0.5 h))	–
KNMDILFSFPG [IDO59, porcine IDO-derived 9-11mer peptide]	–	- (t1/2 (hours) is listed for each of the stably binding peptides (t1/2 ≥ 0.5 h))	–
KRRRGCPIL [RhoC33, porcine RhoC-derived 9-11mer peptide]	–	- (t1/2 (hours) is listed for each of the stably binding peptides (t1/2 ≥ 0.5 h))	–
KTKEGVREVF [RhoC34, porcine RhoC-derived 9-11mer peptide]	–	- (t1/2 (hours) is listed for each of the stably binding peptides (t1/2 ≥ 0.5 h))	–
KTVRGTTVRSL [IDO60, porcine IDO-derived 9-11mer peptide]	–	- (t1/2 (hours) is listed for each of the stably binding peptides (t1/2 ≥ 0.5 h))	–
LDWWSPMDNSW [IDO64, porcine IDO-derived 9-11mer peptide]	- (t1/2 (hours) is listed for each of the stably binding peptides (t1/2 ≥ 0.5 h))	–	–
LGYITMAYVW [IDO66, porcine IDO-derived 9-11mer peptide]	4.9 h	–	T cell response (PBMCs): x
LSEGLLYEGVW [IDO71, porcine IDO-derived 9-11mer peptide]	4.4 h	–	T cell response (PBMCs): x
LVYADCVLANW [IDO74, porcine IDO-derived 9-11mer peptide]	- (t1/2 (hours) is listed for each of the stably binding peptides (t1/2 ≥ 0.5 h))	–	–
MDNSWKIFEEY [IDO76, porcine IDO-derived 9-11mer peptide]	1.9 h	–	T cell response (PBMCs): x
NSWKIFEEYH [IDO90, porcine IDO-derived 9-11mer peptide]	- (t1/2 (hours) is listed for each of the stably binding peptides (t1/2 ≥ 0.5 h))	–	–
NYHLQIVTKY [IDO93, porcine IDO-derived 9-11mer peptide]	- (t1/2 (hours) is listed for each of the stably binding peptides (t1/2 ≥ 0.5 h))	–	–
SSLHKALEVF [IDO121, porcine IDO-derived 9-11mer peptide]	- (t1/2 (hours) is listed for each of the stably binding peptides (t1/2 ≥ 0.5 h))	–	–
Staphylococcal Enterotoxin B [SEB, reference compound]	–	–	IFN-γ in positive control cultures (PBMCs): > 70 pg/mL
TYMPPAHRNF [IDO124, porcine IDO-derived 9-11mer peptide]	4.7 h	–	T cell response (PBMCs): x
VDGKQVELALW [RhoC52, porcine RhoC-derived 9-11mer peptide]	0.5 h	–	T cell response (PBMCs): x
VFSKDQFPEVY [RhoC53, porcine RhoC-derived 9-11mer peptide]	- (t1/2 (hours) is listed for each of the stably binding peptides (t1/2 ≥ 0.5 h))	–	–
WDTAGQEDY [RhoC55, porcine RhoC-derived 9-11mer peptide]	- (t1/2 (hours) is listed for each of the stably binding peptides (t1/2 ≥ 0.5 h))	–	–
WWSPMDNSW [IDO132, porcine IDO-derived 9-11mer peptide]	- (t1/2 (hours) is listed for each of the stably binding peptides (t1/2 ≥ 0.5 h))	–	–
